Reference: publication PMC10649961, “Novel Mitochondria-Targeted Amphiphilic Aminophosphonium Salts and Lipids Nanoparticles: Synthesis, Antitumor Activity and Toxicity” (Nanomaterials, 2023)
Where a SMILES comes first, the peptide text is derived from it. [ ]: non-standard residue; d: D form. Orn = NCCC[C@H](N)C(=O)O

Tested on: human volunteer donor erythrocytes
Test: Hemolytic assay
Format: cell-based
Conditions: hemolysis in 50% of human erythrocytes, 1 h, 37 °C
Experimental: The hemolytic activity of Aminophosphonium Salts was assessed by comparing the optical density of a solution containing the test compound with the optical density of blood at 100% hemolysis. Healthy human volunteer donor erythrocytes were used as the object of the study. Red blood cells with EDTA (1.8 mg/mL) were washed three times with saline (0.9% NaCl), centrifuged for 10 min at 800× g rpm, and resuspended in saline (0.9% NaCl) to a concentration of 10%. The tested concentrations (0.1–100 μM) were prepared in physiological solution (0.9% NaCl) (with the addition of 5% DMSO). Compounds at the appropriate dilution (450 μL) were added to 50 μL of a 10% red blood cell suspension. Samples were incubated for 1 h at 37 °C and centrifuged for 10 min at 2000 rpm. The release of hemoglobin was controlled by measuring the optical density of the supernatant on an InvitroLogic microplate reader at λ = 540 nm. A control sample corresponding to zero hemolysis (blank experiment) was prepared by adding 50 μL of a 10% red blood cell suspension to 450 μL of saline (0.9% NaCl). A control sample corresponding to 100% hemolysis was prepared by adding 50 μL of a 10% red blood cell suspension to 450 μL of distilled water. Blood was taken at the Clinic of the Federal Research Center “Kazan Scientific Center of the Russian Academy of Sciences” from healthy donors with their personal consent.

CC(C)C[C@@H]1NC(=O)[C@H](CCCN)NC(=O)[C@H](C(C)C)NC(=O)[C@@H]2CCCN2C(=O)[C@@H](Cc2ccccc2)NC(=O)[C@H](CC(C)C)NC(=O)[C@H](CCCN)NC(=O)[C@H](C(C)C)NC(=O)[C@@H]2CCCN2C(=O)[C@@H](Cc2ccccc2)NC1=O [Gramicidin S, reference compound] (cyclo(L[dF]PV[Orn]L[dF]PV[Orn]))
HC50: 9.4 ± 0.8 µM
